Assay results taken from patent US4193996A, “Spiro-quinolone hydantoins” (Pfizer Inc., priority 1979, dated 1980).

Columns and labels:
[1] = tested on: sorbitol accumulation in the sciatic nerve; experiment: Inhibition of sorbitol accumulation in the sciatic nerve of streptozotocinized (diabetic) rats; format: in vivo, rat; conditions: oral, at 4, 8 and 24 hours after streptozotocin, measured 27 hours after induction of diabetes
Procedure: The compounds of Examples 3 and 4 were tested for their ability to reduce or inhibit sorbitol accumulation in the sciatic nerve of streptozotocinized (i.e. diabetic) rats by the procedure essentially described in U.S. Pat. No. 3,821,383. In the present study, the amount of sorbitol accumulation in the sciatic nerves was measured 27 hours after induction of diabetes. The compounds were administered orally at the dose levels indicated at 4, 8 and 24 hours following the administration of streptozotocin. The results obtained in this manner are presented below in terms of percent inhibition (%) afforded by the test compound as compared to the case where no compound was administered (i.e. the untreated animal, where sorbitol levels normally rise from approximately […]. tissue in the 27-hour test period): […]

[2] = tested on: aldose reductase; experiment: Inhibition of aldose reductase enzyme activity (partially purified enzyme from calf lens); format: biochemical
Procedure: The compounds of Examples 3 and 4 were tested for their ability to reduce or inhibit aldose reductase enzyme activity, following the procedure described in U.S. Pat. No. 3,821,383 and based on the procedure of Hayman et. al., Journal of Biological Chemistry, 240, 877 (1965). The substrate employed was partially purified aldose reductase enzyme obtained from calf lens.

Row | SMILES | % Inhibition at 1.5 mg/kg (sorbitol accumulation in the sciatic nerve vs untreated) [1] | % Inhibition at 10^-6 m (inhibition of aldose reductase enzyme activity) [2]
1 | O=C1NC(=O)C2(CCn3c(=O)ccc4cc(Cl)cc2c43)N1 (stereo not shown) [Example 4, 10-Chloro-spiro[2,3-dihydro-1H, 5H-benzo[ij]quinolizin[1,4']imidazolidin]-2', 5, 5'-trione] | 32% | 94%
2 | O=C1NC(=O)C2(CCn3c(=O)ccc4cccc2c43)N1 (stereo not shown) [Example 3, Spiro[2,3-dihydro-1H, 5H-benzo[ij]quinolizin [1,4']imidazolidin]-2', 5, 4'-trione] | 27% | 86%
